{"source": "patent US20100184807A1", "about": "“Methods to inhibit tumor cell growth by using proton pump inhibitors” (Bio-Quant, Inc., priority 2008, published 2010)", "key": {"[1]": {"tested_on": "G401 rhabdoid (kidney) cancer cells", "experiment": "Xenograft nude mouse model, G401", "assay_type": "in vivo", "settings": "nude mice, 100 mg/kg in PEG300", "method": "(§1) JR (rhabdomyosarcoma), HepG2 (liver carcinoma), SR Liquid Leukemia (leukemia), RSI 184 B Lymphoma (lymphoma), and G401 rhabdoid (kidney) cancer cells for use in a xenograft mouse model were collected from JR, HepG2, SR Liquid Leukemia, RS1184 B Lymphoma, and G401 rhabdoid tumor cell lines and injected at 5×10^6 cells per nude mouse in a volume of 100 μl subcutaneously. The animals were examined three times weekly to determine the progression of the tumors and determine body weight. Dosing started when tumors reached the ˜75-150 mm^3 size. Animals were randomized and distributed in groups in such a way that mean tumor weights in all groups were within 15% of the mean tumor weight in Group 1 (Control—vehicle group). Upon reaching the ˜75-150 mm^3 target size an effective amount of lansoprazole was administered to the mice in a suspension of PEG300 at a concentration of 100 mg/kg."}, "U251 (brain cancer)": {"tested_on": "U251 (brain cancer)", "experiment": "MTT tumor cell growth assay", "assay_type": "cell-based", "settings": "U251 cells, lansoprazole 1-100 μM, 48 hours", "method": "(§2) In one study, adherent cells were plated approximately 16-24 hours before the day of the experiment in 180 μl growth media. On the day of the experiment, the plated adherent cells were analyzed and counted and suspension cells were plated in 180 μl growth media. 10× lansoprazole compounds and vehicle was prepared. The 10× lansoprazole compounds were prepared by diluting lansoprazole to final concentrations of 100 μM, 30 μM, 10 μM, 3 μM, and 1 μM. A vehicle was prepared by preparing a solution of PBS, equivalent to the volume used for 10 μM lansoprazole wherein the 1× solution constitutes ˜0.06% PBS. 10 μl of the various 10× lansoprazole solutions and the vehicle were added to the cells. The cells were incubated at 37° C., 5% CO2 for 48 hours. The media was then aspirated. The cell suspension was then spun at 1500 RPM for 10 minutes. The media was slowly removed. 200 μl of MTT solution was added to each well with a concentration of 0.863 mg/ml MTT in the growth media. The cells were incubated at 37° C., 5% CO2 for 4 hours and the medium is then aspirated. The plate containing the cell suspension was then spun at 1500 RPM for 10 minutes. The media was slowly removed using a multichannel pipettor. 100 μl of DMSO was then added to each well. The cells were incubated at 37° C., 5% CO2 for 5 minutes and the absorbance was obtained at 560 nm using a Dynex Opsys MR plate reader."}, "SF295 (brain cancer)": {"tested_on": "SF295 (brain cancer)", "experiment": "MTT tumor cell growth assay", "assay_type": "cell-based", "settings": "SF295 cells, lansoprazole 1-100 μM, 48 hours", "method": "as §2"}, "SNB19 (brain cancer)": {"tested_on": "SNB19 (brain cancer)", "experiment": "MTT tumor cell growth assay", "assay_type": "cell-based", "settings": "SNB19 cells, lansoprazole 1-100 μM, 48 hours", "method": "as §2"}, "SF-539 (brain cancer)": {"tested_on": "SF-539 (brain cancer)", "experiment": "MTT tumor cell growth assay", "assay_type": "cell-based", "settings": "SF-539 cells, lansoprazole 1-100 μM, 48 hours", "method": "as §2"}, "HepG2 (liver carcinoma)": {"tested_on": "HepG2 (liver carcinoma)", "experiment": "Xenograft nude mouse model, HepG2", "assay_type": "in vivo", "settings": "nude mice, 100 mg/kg in PEG300", "method": "as §1"}, "[2]": {"tested_on": "JR, HepG2, SR Liquid Leukemia, RS1184 B Lymphoma, and G401 rhabdoid tumor cell lines", "experiment": "Xenograft nude mouse model, all tumor lines", "assay_type": "in vivo", "settings": "subcutaneous xenografts", "method": "as §1"}}}
{"smiles": "Cc1c(OCC(F)(F)F)ccnc1C[S+]([O-])c1nc2ccccc2[nH]1", "note": "(centres unmarked) [lansoprazole]", "values": [{"measurement": "treating tumor cells derived from tumor cell line", "setting": "[1]", "result": "especially effective"}, {"measurement": "tumor cell growth reduction", "setting": "U251 (brain cancer)", "result": "significant tumor cell growth reduction"}, {"measurement": "tumor cell growth reduction", "setting": "SF295 (brain cancer)", "result": "significant tumor cell growth reduction"}, {"measurement": "tumor cell growth reduction", "setting": "SNB19 (brain cancer)", "result": "significant tumor cell growth reduction"}, {"measurement": "tumor cell growth reduction", "setting": "SF-539 (brain cancer)", "result": "significant tumor cell growth reduction"}, {"measurement": "treating tumor cells derived from tumor cell line", "setting": "HepG2 (liver carcinoma)", "result": "especially effective"}, {"measurement": "life span of the population", "setting": "[2]; nude mice, 100 mg/kg in PEG300", "result": "extended life span"}, {"measurement": "tumor growth in mice", "setting": "[2]; 100 mg/kg in PEG300, FIGS. 4A-4C and 5A-5C", "result": "effectively reduced tumor growth"}]}
